Data: patent publication US12077503B2, “Substituted cyclic amides and their use as herbicides” (FMC CORPORATION, priority 2015, dated 2024)

Legend:
Format in all cases: in vivo
[1] = system: velvetleaf (Abutilon theophrasti); experiment: Test G Pre-Emergence Protocol; conditions: Abutilon theophrasti, pre-emergence, 312 h, evaluated after 13 days; for pest or weed control at 15.625 g/ha: 15.625 g ai/ha; for pest or weed control at 15.625 g/ha / pest or weed control at 250 g/ha: read-out: Velvetleaf damage rating (100=total damage to plant; 0=no damage to plant); for pest or weed control at 62.5 g/ha: 62.5 g ai/ha, 100=total damage to plant, 0=no damage to plant, read-out: plant damage rating, Velvetleaf; for pest or weed control at 250 g/ha: 250 g ai/ha
How it was run: (§1)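 Herbicidal effect was rated 13 days post-application on a scale where 100 equals total damage. Spraying took place the day after sowing, using 15.625, 62.5 or 250 g/ha of compound in a 50:50 acetone/water solution with 0.5% Tween 20.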

[2] = system: redroot pigweed (Amaranthus retroflexus); experiment: Test G Pre-Emergence Protocol; conditions: Amaranthus retroflexus, pre-emergence, 312 h, evaluated after 13 days; for pest or weed control at 15.625 g/ha: 15.625 g ai/ha; for pest or weed control at 15.625 g/ha / pest or weed control at 250 g/ha: read-out: Pigweed, Redroot damage rating (100=total damage to plant; 0=no damage to plant); for pest or weed control at 62.5 g/ha: 62.5 g ai/ha, 100=total damage to plant, 0=no damage to plant, read-out: plant damage rating, Pigweed, Redroot; for pest or weed control at 250 g/ha: 250 g ai/ha
How it was run: as §1

[3] = system: giant foxtail (Setaria faberi); experiment: Test G Pre-Emergence Protocol; conditions: Setaria faberi, pre-emergence, 312 h, evaluated after 13 days; for pest or weed control at 15.625 g/ha: 15.625 g ai/ha; for pest or weed control at 15.625 g/ha / pest or weed control at 250 g/ha: read-out: Foxtail, Giant damage rating (100=total damage to plant; 0=no damage to plant); for pest or weed control at 62.5 g/ha: 62.5 g ai/ha, 100=total damage to plant, 0=no damage to plant, read-out: plant damage rating, Foxtail, Giant; for pest or weed control at 250 g/ha: 250 g ai/ha
How it was run: as §1

corn (Zea mays) [4] = experiment: Test G Pre-Emergence Protocol; conditions: Zea mays, pre-emergence, 312 h, evaluated after 13 days; for plant injury at 15.625 g/ha: 15.625 g ai/ha; for plant injury at 15.625 g/ha / plant injury at 250 g/ha: read-out: Corn damage rating (100=total damage to plant; 0=no damage to plant); for plant injury at 62.5 g/ha: 62.5 g ai/ha, 100=total damage to plant, 0=no damage to plant, read-out: plant damage rating, Corn; for plant injury at 250 g/ha: 250 g ai/ha
How it was run: as §1

[5] = system: ivy-leaved morning glory (Ipomoea hederacea); experiment: Test G Pre-Emergence Protocol; conditions: Ipomoea, pre-emergence, 312 h, evaluated after 13 days; for pest or weed control at 62.5 g/ha: 62.5 g ai/ha, 100=total damage to plant, 0=no damage to plant, read-out: plant damage rating, Morningglory, Ivy-leaved; for pest or weed control at 250 g/ha: 250 g ai/ha, read-out: Morningglory, Ivy-leaved damage rating (100=total damage to plant; 0=no damage to plant)
How it was run: as §1

[6] = system: barnyardgrass (Echinochloa crus-galli); experiment: Test G Pre-Emergence Protocol; conditions: Echinochloa crus-galli, pre-emergence, 312 h, evaluated after 13 days; for pest or weed control at 15.625 g/ha: 15.625 g ai/ha, read-out: Barnyard grass damage rating (100=total damage to plant; 0=no damage to plant); for pest or weed control at 62.5 g/ha: 62.5 g ai/ha, 100=total damage to plant, 0=no damage to plant, read-out: plant damage rating, Barnyardgrass; for pest or weed control at 250 g/ha: 250 g ai/ha, read-out: Barnyardgrass damage rating (100=total damage to plant; 0=no damage to plant)
How it was run: as §1

[7] = system: velvetleaf (Abutilon theophrasti); experiment: Test G Post-Emergence Protocol; conditions: Abutilon theophrasti, post-emergence, 312 h; for pest or weed control at 15.625 g/ha: 15.625 g ai/ha, evaluated after 13 days (100=total damage to plant; 0=no damage to plant), read-out: Velvetleaf damage rating; for pest or weed control at 62.5 g/ha: 62.5 g ai/ha, read-out: Velvetleaf damage rating (100=total damage to plant; 0=no damage to plant); for pest or weed control at 62.5 g/ha / pest or weed control at 250 g/ha: evaluated after 13 days; for pest or weed control at 250 g/ha: 250 g ai/ha, read-out: damage to plant, Velvetleaf (100=total damage to plant; 0=no damage to plant)
How it was run: (§2)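 Post-emergence herbicidal damage, scored visually 0–100 at 13 days. Application at 15.625, 62.5 or 250 g/ha onto 8-day-old plants grown under glasshouse control.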

[8] = system: redroot pigweed (Amaranthus retroflexus); experiment: Test G Post-Emergence Protocol; conditions: Amaranthus retroflexus, post-emergence, 312 h; for pest or weed control at 15.625 g/ha: 15.625 g ai/ha, evaluated after 13 days (100=total damage to plant; 0=no damage to plant), read-out: Pigweed, Redroot damage rating; for pest or weed control at 62.5 g/ha: 62.5 g ai/ha, read-out: Pigweed, Redroot damage rating (100=total damage to plant; 0=no damage to plant); for pest or weed control at 62.5 g/ha / pest or weed control at 250 g/ha: evaluated after 13 days; for pest or weed control at 250 g/ha: 250 g ai/ha, read-out: damage to plant, Pigweed, Redroot (100=total damage to plant; 0=no damage to plant)
How it was run: as §2

[9] = system: giant foxtail (Setaria faberi); experiment: Test G Post-Emergence Protocol; conditions: Setaria faberi, post-emergence, 312 h; for pest or weed control at 15.625 g/ha: 15.625 g ai/ha, evaluated after 13 days (100=total damage to plant; 0=no damage to plant), read-out: Foxtail, Giant damage rating; for pest or weed control at 62.5 g/ha: 62.5 g ai/ha, read-out: Foxtail, Giant damage rating (100=total damage to plant; 0=no damage to plant); for pest or weed control at 62.5 g/ha / pest or weed control at 250 g/ha: evaluated after 13 days; for pest or weed control at 250 g/ha: 250 g ai/ha, read-out: damage to plant, Foxtail, Giant (100=total damage to plant; 0=no damage to plant)
How it was run: as §2

corn (Zea mays) [10] = experiment: Test G Post-Emergence Protocol; conditions: Zea mays, post-emergence, 312 h; for plant injury at 15.625 g/ha: 15.625 g ai/ha, evaluated after 13 days (100=total damage to plant; 0=no damage to plant), read-out: Corn damage rating; for plant injury at 62.5 g/ha: 62.5 g ai/ha, read-out: Corn damage rating (100=total damage to plant; 0=no damage to plant); for plant injury at 62.5 g/ha / plant injury at 250 g/ha: evaluated after 13 days; for plant injury at 250 g/ha: 250 g ai/ha, read-out: damage to plant, Corn (100=total damage to plant; 0=no damage to plant)
How it was run: as §2

[11] = system: ivy-leaved morning glory (Ipomoea hederacea); experiment: Test G Post-Emergence Protocol; conditions: Ipomoea, post-emergence, 312 h; for pest or weed control at 15.625 g/ha: 15.625 g ai/ha, evaluated after 13 days (100=total damage to plant; 0=no damage to plant), read-out: Morningglory, Ivy-leaved damage rating; for pest or weed control at 62.5 g/ha: 62.5 g ai/ha, read-out: Morningglory, Ivy-leaved damage rating (100=total damage to plant; 0=no damage to plant); for pest or weed control at 62.5 g/ha / pest or weed control at 250 g/ha: evaluated after 13 days; for pest or weed control at 250 g/ha: 250 g ai/ha, read-out: damage to plant, Morningglory, Ivy-leaved (100=total damage to plant; 0=no damage to plant)
How it was run: as §2

[12] = system: barnyardgrass (Echinochloa crus-galli); experiment: Test G Post-Emergence Protocol; conditions: Echinochloa crus-galli, post-emergence, 312 h; for pest or weed control at 15.625 g/ha: 15.625 g ai/ha, evaluated after 13 days (100=total damage to plant; 0=no damage to plant), read-out: Barnyardgrass damage rating; for pest or weed control at 62.5 g/ha: 62.5 g ai/ha, read-out: Barnyardgrass damage rating (100=total damage to plant; 0=no damage to plant); for pest or weed control at 62.5 g/ha / pest or weed control at 250 g/ha: evaluated after 13 days; for pest or weed control at 250 g/ha: 250 g ai/ha, read-out: damage to plant, Barnyardgrass (100=total damage to plant; 0=no damage to plant)
How it was run: as §2

Row | SMILES | pest or weed control at 15.625 g/ha [1] | pest or weed control at 62.5 g/ha [1] | pest or weed control at 250 g/ha [1] | pest or weed control at 15.625 g/ha [2] | pest or weed control at 62.5 g/ha [2] | pest or weed control at 250 g/ha [2] | pest or weed control at 15.625 g/ha [3] | pest or weed control at 62.5 g/ha [3] | pest or weed control at 250 g/ha [3] | plant injury at 15.625 g/ha (corn (Zea mays) [4]) | plant injury at 62.5 g/ha (corn (Zea mays) [4]) | plant injury at 250 g/ha (corn (Zea mays) [4]) | pest or weed control at 62.5 g/ha [5] | pest or weed control at 250 g/ha [5] | pest or weed control at 15.625 g/ha [6] | pest or weed control at 62.5 g/ha [6] | pest or weed control at 250 g/ha [6] | pest or weed control at 15.625 g/ha [7] | pest or weed control at 62.5 g/ha [7] | pest or weed control at 250 g/ha [7] | also measured
1 | Cc1c(Br)cccc1NC(=O)[C@@H]1C(=O)N(C)C[C@H]1c1ccc(C(F)(F)F)cc1 (racemic) [Compound 1619] | 0% | 0% | 10% | 0% | 0% | 20% | 0% | 0% | 70% | 0% | 0% | 0% | 0% | 10% | 0% | 0% | 10% | 0% | 0% | 0% | pest or weed control at 15.625 g/ha ([5]; 15.625 g ai/ha, read-out: Morning-glory, Ivy-leaved damage rating (100=total damage to plant; 0=no damage to plant)): 0%; pest or weed control at 15.625 g/ha [8]: 0%; pest or weed control at 62.5 g/ha [8]: 20%; pest or weed control at 250 g/ha [8]: 50%; pest or weed control at 15.625 g/ha [9]: 0%; pest or weed control at 62.5 g/ha [9]: 60%; pest or weed control at 250 g/ha [9]: 70%; plant injury at 15.625 g/ha (corn (Zea mays) [10]): 0%; plant injury at 62.5 g/ha (corn (Zea mays) [10]): 0%; plant injury at 250 g/ha (corn (Zea mays) [10]): 10%; pest or weed control at 15.625 g/ha [11]: 0%; pest or weed control at 62.5 g/ha [11]: 10%; pest or weed control at 250 g/ha [11]: 30%; pest or weed control at 15.625 g/ha [12]: 0%; pest or weed control at 62.5 g/ha [12]: 10%; pest or weed control at 250 g/ha [12]: 70%
2 | CN1C[C@@H](c2ccc(C(F)(F)F)cc2)[C@H](C(=O)Nc2ccc(F)nc2)C1=O (racemic) [Compound 1555] | 0% | 0% | 0% | 40% | 30% | 70% | 0% | 30% | 70% | 0% | 0% | 20% | 0% | 0% | 0% | 20% | 70% | 0% | 0% | 10% | pest or weed control at 15.625 g/ha [8]: 0%; pest or weed control at 62.5 g/ha [8]: 0%; pest or weed control at 250 g/ha [8]: 20%; pest or weed control at 15.625 g/ha [9]: 0%; pest or weed control at 62.5 g/ha [9]: 0%; pest or weed control at 250 g/ha [9]: 50%; plant injury at 15.625 g/ha (corn (Zea mays) [10]): 0%; plant injury at 62.5 g/ha (corn (Zea mays) [10]): 10%; plant injury at 250 g/ha (corn (Zea mays) [10]): 0%; pest or weed control at 15.625 g/ha [11]: 0%; pest or weed control at 62.5 g/ha [11]: 10%; pest or weed control at 250 g/ha [11]: 50%; pest or weed control at 15.625 g/ha [12]: 0%; pest or weed control at 62.5 g/ha [12]: 0%; pest or weed control at 250 g/ha [12]: 40%
